Measured values as given in paper PMC4065339, “Characterization of Family D DNA polymerase from Thermococcus sp. 9°N” (Extremophiles, 2014).

Columns and labels:
[1] = target: T1, polB (9°Nm DNA polymerase; 9°N/E143D) (Thermococcus sp. 9oN-7, UniProt Q56366, E143D); test: [α-32P]-dCTP incorporation into primed M13mp18, acid precipitation; assay type: biochemical
T1 construct: gene pol; commercial recombinant 9°Nm DNA polymerase (New England Biolabs), E143D variant in exonuclease domain; single subunit
T1 sequence (Q56366 1-775 E143D): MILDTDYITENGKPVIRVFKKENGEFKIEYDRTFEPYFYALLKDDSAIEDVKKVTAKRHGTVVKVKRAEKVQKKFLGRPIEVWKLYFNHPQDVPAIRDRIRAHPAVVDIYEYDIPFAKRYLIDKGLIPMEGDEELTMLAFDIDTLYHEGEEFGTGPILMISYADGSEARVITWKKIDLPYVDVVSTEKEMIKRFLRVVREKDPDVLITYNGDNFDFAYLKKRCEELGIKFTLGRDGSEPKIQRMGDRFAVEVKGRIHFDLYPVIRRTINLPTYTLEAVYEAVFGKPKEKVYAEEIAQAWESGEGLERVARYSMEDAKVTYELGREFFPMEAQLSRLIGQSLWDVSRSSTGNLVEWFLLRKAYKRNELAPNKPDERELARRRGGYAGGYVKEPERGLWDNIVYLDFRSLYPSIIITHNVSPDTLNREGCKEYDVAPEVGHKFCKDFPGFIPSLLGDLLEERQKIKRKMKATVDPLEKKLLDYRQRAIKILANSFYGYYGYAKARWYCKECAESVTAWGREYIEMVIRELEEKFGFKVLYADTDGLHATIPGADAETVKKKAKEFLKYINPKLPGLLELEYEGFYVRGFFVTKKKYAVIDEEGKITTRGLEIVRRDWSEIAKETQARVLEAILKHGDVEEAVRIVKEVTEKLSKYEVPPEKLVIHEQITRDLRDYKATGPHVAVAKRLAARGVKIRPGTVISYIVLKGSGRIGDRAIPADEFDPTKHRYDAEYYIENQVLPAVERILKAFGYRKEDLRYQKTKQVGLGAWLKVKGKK

[2] = system: T2, polD (heterodimer of polD-S and polD-L); test: as above; assay type: biochemical, Thermococcus sp. 9°N; details: 10 nM enzyme, 15 nM primed M13mp18, 50 µM dNTPs, ThermoPol buffer pH 8.8 (2 mM MgSO4), 65 °C, 20 min; read-out: not inhibited by up to 0.4 mM
T2 construct: gene polC; E. coli T7 Express/pRIL, untagged, co-expressed plasmids pERE1 and pERF5, co-purified heterodimer; with DNA polymerase II small subunit

C[C@@]1(CO)[C@H](O)CC[C@@]2(C)[C@H]1CC[C@H]1C[C@@H]3C[C@@]12CC[C@]3(O)CO [aphidicolin]
IC50 [1]: 300 µM
IC50 [2]: > 400 µM
